Laboratory results reported in patent US20240208992A1, “MACROCYCLES AS CFTR MODULATORS” (Idorsia Pharmaceuticals Ltd, priority 2021, published 2024).

Biological target: human F508del-CFTR (Homo sapiens, UniProt P13569, DEL508-508)
Assay: F508del-CFTR cell surface expression (corrector activity), DiscoveRx ß-galactosidase complementation chemiluminescence assay in recombinant U2OS cell line;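 further: U2OS cells co-expressing ProLink-tagged F508del-CFTR and a membrane-anchored enzyme acceptor, where more surface CFTR restores β-galactosidase activity measured by chemiluminescence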
Details: for EC50: EC50, F508del-CFTR cell surface expression; for Emax: U2OS
[1] = U2OS cells, 16h compound incubation, geomean values
[2] = in relation to Emax of corrector lumacaftor (=100%), arithmetic mean values
[3] = U2OS cell line, 16h compound incubation, geomean values
[4] = in relation to the Emax of the corrector lumacaftor (=100%), U2OS cell line, 16h compound incubation, arithmetic mean values
[5] = U2OS cells, 16h compound incubation, geomean of several measurements
[6] = in relation to the Emax of the corrector lumacaftor (=100%), U2OS cells, 16h compound incubation, arithmetic mean

Sequence of human F508del-CFTR (P13569 with tags, fused parts or gaps DEL508-508): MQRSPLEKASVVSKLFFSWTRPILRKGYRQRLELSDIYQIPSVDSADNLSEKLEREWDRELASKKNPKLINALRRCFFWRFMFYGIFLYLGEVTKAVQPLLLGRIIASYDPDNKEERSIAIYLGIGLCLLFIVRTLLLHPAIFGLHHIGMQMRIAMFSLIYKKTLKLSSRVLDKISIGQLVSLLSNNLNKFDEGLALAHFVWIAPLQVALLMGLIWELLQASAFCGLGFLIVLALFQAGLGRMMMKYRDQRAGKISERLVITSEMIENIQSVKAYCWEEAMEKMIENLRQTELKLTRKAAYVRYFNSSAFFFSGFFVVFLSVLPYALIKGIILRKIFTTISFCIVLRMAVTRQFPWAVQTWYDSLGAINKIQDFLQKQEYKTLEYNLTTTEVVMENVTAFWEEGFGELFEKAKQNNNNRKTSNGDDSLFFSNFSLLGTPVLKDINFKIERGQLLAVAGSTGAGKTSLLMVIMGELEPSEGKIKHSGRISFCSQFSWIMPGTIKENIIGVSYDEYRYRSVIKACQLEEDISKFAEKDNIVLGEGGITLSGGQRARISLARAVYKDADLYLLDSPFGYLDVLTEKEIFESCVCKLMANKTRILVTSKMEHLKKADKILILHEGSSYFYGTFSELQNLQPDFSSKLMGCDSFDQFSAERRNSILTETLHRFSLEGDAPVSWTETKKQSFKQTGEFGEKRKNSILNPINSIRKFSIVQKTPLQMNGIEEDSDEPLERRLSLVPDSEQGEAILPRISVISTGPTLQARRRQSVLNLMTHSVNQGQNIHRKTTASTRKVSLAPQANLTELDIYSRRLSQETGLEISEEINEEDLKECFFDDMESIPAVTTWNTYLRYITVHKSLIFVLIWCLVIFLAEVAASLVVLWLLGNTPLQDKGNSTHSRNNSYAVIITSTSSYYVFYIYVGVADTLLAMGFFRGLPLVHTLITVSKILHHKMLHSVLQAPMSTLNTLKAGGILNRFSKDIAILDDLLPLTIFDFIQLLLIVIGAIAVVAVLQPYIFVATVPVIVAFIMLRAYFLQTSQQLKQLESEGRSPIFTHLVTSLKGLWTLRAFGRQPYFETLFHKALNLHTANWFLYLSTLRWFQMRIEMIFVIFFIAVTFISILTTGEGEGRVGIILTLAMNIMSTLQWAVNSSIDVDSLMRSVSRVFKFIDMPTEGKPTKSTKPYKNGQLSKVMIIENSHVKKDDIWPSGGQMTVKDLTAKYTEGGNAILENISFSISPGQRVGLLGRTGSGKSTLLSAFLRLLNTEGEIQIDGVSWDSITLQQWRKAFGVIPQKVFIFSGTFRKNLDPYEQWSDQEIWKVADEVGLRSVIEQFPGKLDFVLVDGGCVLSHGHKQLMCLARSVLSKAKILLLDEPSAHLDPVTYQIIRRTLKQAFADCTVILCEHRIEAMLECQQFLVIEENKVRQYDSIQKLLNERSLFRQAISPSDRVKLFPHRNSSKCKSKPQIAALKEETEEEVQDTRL

Compound	EC50 [1] [nM]	Emax [2] [%]	EC50 [3] [nM]	Emax [4] [%]	further results
COc1cccc2c1OC[C@@H](NC(=O)[C@@H]1CC(=O)N(C)[C@@H](CC(C)C)C(=O)N3CCOC[C@@H]3C(=O)N[C@H](Cc3ccccc3)COc3ccc4ccccc4c3C(=O)N1)C2 [Example 32, (4aR,7R,18S,22S)-7-benzyl-22-isobutyl-N-(-8-methoxychroman-3-yl)-21-methyl-5,16,20,23-tetraoxo-1,2,4,4a,5,6,7,8,16,17,18,19,20,21,22,23-hexadecahydronaphtho[1,2-p][1,4]oxazino[3,4-f][1]oxa[4,7,10,14]tetraazacycloheptadecine-18-carboxamide]	–	–	318	146	–
COc1cccc(CCNC(=O)[C@@H]2CC(=O)N(C)[C@@H](CC(C)C)C(=O)N(C)CC(=O)N[C@H](Cc3ccccc3)COc3cnc(OC)cc3C(=O)N2)c1 [Example 647, (3R,9S,13S)-3-benzyl-9-isobutyl-17-methoxy-N-(3-methoxyphenethyl)-7,10-dimethyl-5,8,11,15-tetraoxo-2,3,4,5,6,7,8,9,10,11,12,13,14,15-tetradecahydropyrido[4,3-p][1]oxa[4,7,10,14]tetraazacycloheptadecine-13-carboxamide]	820	182	–	–	–
COc1cccc(CCNC(=O)[C@@H]2CC(=O)N(C)[C@@H](CC(C)C)C(=O)N(C)CC(=O)N[C@H](Cc3ccccc3)COc3ccc4c(c3C(=O)N2)OCO4)c1 [Example 323, (8R,14S,18S)-8-benzyl-14-isobutyl-N-(3-methoxyphenethyl)-12,15-dimethyl-10,13,16,20-tetraoxo-7,8,9,10,11,12,13,14,15,16,17,18,19,20-tetradecahydro-[1,3]dioxolo[4′,5′:5,6]benzo[1,2-p][1]oxa[4,7,10,14]tetraazacycloheptadecine-18-carboxamide]	–	–	742	258	–
CCOCC[C@@H]1C(=O)N[C@H](Cc2ccccc2)COc2ccc3cnc(C)cc3c2C(=O)N[C@H](C(=O)NCCc2nc(OC)no2)CC(=O)N(C)[C@@H](CC(C)C)C(=O)N1C [Example 914, (3S,7S,10R,13R)-13-benzyl-10-(2-ethoxyethyl)-7-isobutyl-N-(2-(3-methoxy-1,2,4-oxadiazol-5-yl)ethyl)-6,9,20-trimethyl-1,5,8,11-tetraoxo-1,2,3,4,5,6,7,8,9,10,11,12,13,14-tetradecahydro-[1]oxa[4,7,10,14]tetraazacycloheptadecino[16,17-f]isoquinoline-3-carboxamide]	–	–	–	–	EC50 [5]: 368 nM; Emax [6]: 358%
CCOCC[C@@H]1C(=O)N[C@H](Cc2ccccc2)COc2cc(C)nc(OC)c2C(=O)N[C@H](C(=O)NCCc2cc(C3CC3)no2)CC(=O)N(C)[C@@H](CC(C)C)C(=O)N1C [Example 910, (3R,6R,9S,13S)-3-benzyl-N-(2-(3-cyclopropylisoxazol-5-yl)ethyl)-6-(2-ethoxyethyl)-9-isobutyl-16-methoxy-7,10,18-trimethyl-5,8,11,15-tetraoxo-2,3,4,5,6,7,8,9,10,11,12,13,14,15-tetradecahydropyrido[3,4-p][1]oxa[4,7,10,14]tetraazacycloheptadecine-13-carboxamide]	–	–	–	–	EC50 [5]: 477 nM; Emax [6]: 423%
Cc1cc2c3c(ccc2cn1)OC[C@@H](Cc1ccccc1)NC(=O)[C@@H](CC(F)(F)F)N(C)C(=O)[C@H](CC(C)C)N(C)C(=O)C[C@@H](C(=O)NCCc1cc(C2CC2)on1)NC3=O [Example 958, (3S,7S,10R,13R)-13-benzyl-N-(2-(5-cyclopropylisoxazol-3-yl)ethyl)-7-isobutyl-6,9,20-trimethyl-1,5,8,11-tetraoxo-10-(2,2,2-trifluoroethyl)-1,2,3,4,5,6,7,8,9,10,11,12,13,14-tetradecahydro-[1]oxa[4,7,10,14]tetraazacycloheptadecino[16,17-f]isoquinoline-3-carboxamide]	–	–	–	–	EC50 [5]: 338 nM; Emax [6]: 439%
CC(C)C[C@H]1C(=O)N2CCCC[C@@H]2C(=O)N[C@H](Cc2ccccc2)COc2ccc3ncn(C)c3c2C(=O)N[C@H](C(=O)NCCc2noc3ccccc23)CC(=O)N1C [Example 30, (8S,12S,18aR,21R)-N-(2-(benzo[d]isoxazol-3-yl)ethyl)-21-benzyl-12-isobutyl-5,11-dimethyl-6,10,13,19-tetraoxo-6,7,8,9,10,11,12,13,16,17,18,18a,19,20,21,22-hexadecahydro-5H,15H-imidazo[4′,5′:5,6]benzo[1,2-p]pyrido[2,1-f][1]oxa[4,7,10,14]tetraazacycloheptadecine-8-carboxamide]	–	–	275	113	–
COc1cccc(CCNC(=O)[C@@H]2CC(=O)N(C)[C@@H](CC(C)C)C(=O)N3CCN(C(C)C)C[C@@H]3C(=O)N[C@H](Cc3ccccc3)COc3cnc4ccccc4c3C(=O)N2)c1 [Example 374, (9S,13S,19aR,22R)-22-benzyl-13-isobutyl-18-isopropyl-N-(3-methoxyphenethyl)-12-methyl-7,11,14,20-tetraoxo-7,8,9,10,11,12,13,14,17,18,19,19a,20,21,22,23-hexadecahydro-16H-pyrazino[2′,1′:6,7][1]oxa[4,7,10,14]tetraazacycloheptadecino[17,16-c]quinoline-9-carboxamide]	–	–	102	333	–
CC(C)C[C@H]1C(=O)N(C)C2(CC2)C(=O)N[C@H](Cc2ccccc2)COc2cnc3ccccc3c2C(=O)N[C@H](C(=O)NCCc2cc(F)cc(F)c2)CC(=O)N1C [Example 120, (3′S,7′S,13′R)-13′-benzyl-N-(3,5-difluorophenethyl)-7′-isobutyl-6′,9′-dimethyl-1′,5′,8′,11′-tetraoxo-2′,3′,4′,5′,6′,7′,8′,9′,11′,12′,13′,14′-dodecahydro-1′H-spiro[cyclopropane-1,10′-[1]oxa[4,7,10,14]tetraazacycloheptadecino[17,16-c]quinoline]-3′-carboxamide]	–	–	331	212	–
CCOc1cccc(CCNC(=O)[C@@H]2CC(=O)N(C)[C@@H](CC(C)C)C(=O)N3CCN(C4CC4)C[C@@H]3C(=O)N[C@H](Cc3ccccc3)COc3cnc4ccccc4c3C(=O)N2)c1 [Example 400, (9S,13S,19aR,22R)-22-benzyl-18-cyclopropyl-N-(3-ethoxyphenethyl)-13-isobutyl-12-methyl-7,11,14,20-tetraoxo-7,8,9,10,11,12,13,14,17,18,19,19a,20,21,22,23-hexadecahydro-16H-pyrazino[2′,11:6,7][1]oxa[4,7,10,14]tetraazacycloheptadecino[17,16-c]quinoline-9-carboxamide]	164	292	–	–	–
COc1cccc2c1C(=O)N[C@H](C(=O)NCC[C@H]1COc3ccccc3O1)CC(=O)N(C)[C@@H](CC(C)C)C(=O)N(CCC1CCCCC1)CC(=O)N[C@H](Cc1ccccc1)CO2 (racemic) [Example 213, (3R,9S,13S)-3-benzyl-7-(2-cyclohexylethyl)-N-(2-((RS)-2,3-dihydrobenzo[b][1,4]dioxin-2-yl)ethyl)-9-isobutyl-16-methoxy-10-methyl-5,8,11,15-tetraoxo-2,3,4,5,6,7,8,9,10,11,12,13,14,15-tetradecahydrobenzo[p][1]oxa[4,7,10,14]tetraazacycloheptadecine-13-carboxamide]	–	–	292	100	–
COc1noc(CCNC(=O)[C@@H]2CC(=O)N(C)[C@@H](CC(C)C)C(=O)N(C)[C@H](Cc3nc(-c4ccc(F)cn4)no3)C(=O)N[C@H](Cc3ccccc3)COc3ccc4cnc(C)cc4c3C(=O)N2)n1 [Example 917, (3S,7S,10R,13R)-13-benzyl-10-((3-(5-fluoropyridin-2-yl)-1,2,4-oxadiazol-5-yl)methyl)-7-isobutyl-N-(2-(3-methoxy-1,2,4-oxadiazol-5-yl)ethyl)-6,9,20-trimethyl-1,5,8,11-tetraoxo-1,2,3,4,5,6,7,8,9,10,11,12,13,14-tetradecahydro-[1]oxa[4,7,10,14]tetraazacycloheptadecino[16,17-f]isoquinoline-3-carboxamide]	–	–	–	–	EC50 [5]: 487 nM; Emax [6]: 398%

Further lines, with some results ahead:

EC50 [1] [nM]	Emax [2] [%]	Compound	EC50 [3] [nM]	Emax [4] [%]	further results
349	385	CC(C)C[C@H]1C(=O)N(C)C2(CC2)C(=O)N[C@H](Cc2ccccc2)COc2ccc3ncc(F)cc3c2C(=O)N[C@H](C(=O)NCCc2cc(C3CC3)no2)CC(=O)N1C [Example 545, (3′S,7′S,13′R)-13′-benzyl-N-(2-(3-cyclopropylisoxazol-5-yl)ethyl)-20′-fluoro-7′-isobutyl-6′,9′-dimethyl-1′,5′,8′,11′-tetraoxo-2′,3′,4′,5′,6′,7′,8′,9′,11′,12′,13′,14′-dodecahydro-1′H-spiro[cyclopropane-1,10′-[1]oxa[4,7,10,14]tetraazacycloheptadecino[16,17-f]quinoline]-3′-carboxamide]	–	–	–
36	410	Cc1cc(CCNC(=O)[C@@H]2CC(=O)N(C)[C@@H](CC(C)C)C(=O)N(C)[C@H](COCc3ccccc3)C(=O)N[C@H](Cc3ccccc3)COc3ccc4ccccc4c3C(=O)N2)on1 [Example 714, (3S,7S,10R,13R)-13-benzyl-10-((benzyloxy)methyl)-7-isobutyl-6,9-dimethyl-N-(2-(3-methylisoxazol-5-yl)ethyl)-1,5,8,11-tetraoxo-1,2,3,4,5,6,7,8,9,10,11,12,13,14-tetradecahydronaphtho[1,2-p][1]oxa[4,7,10,14]tetraazacycloheptadecine-3-carboxamide]	–	–	–
144	313	Cc1cc(CCNC(=O)[C@@H]2CC(=O)N(C)[C@@H](CC(C)C)C(=O)N(C)[C@@H](COCc3ccccc3)C(=O)N[C@H](Cc3ccccc3)COc3ccc4ccccc4c3C(=O)N2)on1 [Example 716, (3S,7S,10S,13R)-13-benzyl-10-((benzyloxy)methyl)-7-isobutyl-6,9-dimethyl-N-(2-(3-methylisoxazol-5-yl)ethyl)-1,5,8,11-tetraoxo-1,2,3,4,5,6,7,8,9,10,11,12,13,14-tetradecahydronaphtho[1,2-p][1]oxa[4,7,10,14]tetraazacycloheptadecine-3-carboxamide]	–	–	–
